Literature values, collected in patent US7829717B2, “(Arylamidoaryl)squaramide compounds” (OSI Pharmaceuticals, Inc., priority 2004, dated 2010).
Where a name gives a salt, the structure may show the parent alone.

System: MO7e human leukemia cells

Cc1ccc(NC(=O)c2ccc(CN3CCN(C)CC3)cc2)cc1Nc1nccc(-c2cccnc2)n1 [Gleevec, imatinib mesylate]
GM-CSF stimulated growth of MO7e human leukemia cells (GM-CSF stimulated): not affected | Kit ligand-stimulated growth of MO7e human leukemia cells (Kit ligand-stimulated): inhibited
